Assays:
RCC4 = assay: XTT cell viability assay, RCC4 RCC cells; format: cell-based, human; details: Homo sapiens, RCC4, 48 h, SD 10%, mean of three experiments, read-out: IC50 R4 (Kidney RCC)
Experimental: (§1) Fifty microliters of sodium 3′-[1-phenylaminocarbonyl)-3,4-tetrazolium]-bis(4-methoxy-6-nitro) benzene sulfonic acid hydrate (XTT) reagent was added to each well. The assay is based on the cleavage of the yellow tetrazolium salt XTT to form an orange formazan dye by metabolically active cells. This bio-reduction occurs in viable cells only and is related to NAD(P)H production through glycolysis. Therefore, the amount of formazan dye measured at 490 nm directly correlated with the number of metabolically active cells reflecting cell proliferation and viability. Each assay was performed in quadruplicate.

OCI-AML3 = assay: XTT cell viability assay, OCI-AML3 AML cells; format: cell-based, human; details: Homo sapiens, OCI-AML-3, 48 h, SD 10%, mean of three experiments, read-out: IC50 L3 (AML)
Experimental: as §1

Molm13 = assay: XTT cell viability assay, Molm13 AML cells; format: cell-based, human; details: Homo sapiens, MOLM-13, 48 h, SD 10%, mean of three experiments
Experimental: as §1

Molm14 = assay: XTT cell viability assay, Molm14 AML cells; format: cell-based, human; details: Homo sapiens, MOLM-14, 48 h, SD 10%, mean of three experiments
Experimental: as §1

K562 = assay: XTT cell viability assay, K562 CML cells; format: cell-based, human; details: Homo sapiens, K562, 48 h, SD 10%, mean of three experiments
Experimental: as §1

[1] = system: uveal melanoma cells (Mel202); assay: Cell viability, uveal melanoma cells; format: cell-based
Experimental: as §1
(§2) To determine the selectivity of the activity of the substances tested, the selectivity index (SI) was calculated according to the equation previously described where SI = IC50 of a compound in a normal cell line/IC50 of the same compound in cancer cell line. The IC50 is the concentration required to kill 50% of the cell population.

[2] = system: primary kidney tumor cells (TF); assay: Cell viability, primary kidney tumor cells TF; format: cell-based
Experimental: as §1
For the experiments with C29, we confirmed all the results by evaluating the cell viability. Cell viability and cell death was assessed using the ADAM-MC apparatus (NanoEnTek, Guro-gu, Seoul, Korea) based on fluorescent propidium iodide staining according to the manufacturer's instructions.
as §2

HuVEC = assay: Boyden chamber migration assay; format: cell-based, human; details: CXCL7 50 ng/ml, 2.5 µmol/L compound
Experimental: CXCL7 or VEGFA-stimulated chemotaxis assays were monitored using modified Boyden chambers containing polycarbonate membranes (8-μm pores, Transwell; Corning, Sigma). Cells were seeded onto the upper side of the filters and chambers were placed on 24-well plates containing CXCL7 (50ng/ml) or VEGFA (50ng/ml). Cell migration was followed for 24 h at 37°C in 5% CO2. Migratory cells on the lower membrane surface were fixed in 3% paraformaldehyde, stained with 0.1% crystal violet.

[3] = system: ERK/MAP Kinase signaling pathway; assay: p-ERK immunoblotting in HuVEC; format: cell-based, human; details: 5 µM C29 1 h, CXCL5 50 ng/ml 10 min
Experimental: Cells were lysed in buffer containing 3% SDS, 10% glycerol and 0.825 mM Na2HPO4. 30 to 50 μg of proteins separated on 10% SDS-PAGE, transferred onto a PVDF membrane and then exposed to the appropriate antibodies. Proteins were visualized with the ECL system using horseradish peroxidase-conjugated anti-rabbit or anti-mouse antibodies.

caspase 3 = assay: Caspase 3 activity assay; format: cell-based, human; details: 786, 786R, CAL27, CAL27R; 2.5 and 5 µM, 48 h
Experimental: Caspase assays have already been described. Briefly, the caspase 3 activity was assessed in quadruplicate using z-DEVD-AMC as substrate and the fluorescence were assessed.

TF and CC cells = assay: FACS analysis of apoptotic markers, primary tumor cells; format: cell-based; details: C29 at 1 µmol/L
Experimental: (§3) Apoptosis analysis: After stimulation, cells were washed with ice-cold PBS and were stained with the annexin-V-fluo staining kit (Roche, Meylan, France) according to the manufacturer's procedure. Fluorescence was measured using the FL2 (AV) and FL3 (propidium iodide, PI) channels of a fluorescence-activated cell sorter apparatus (Calibur cytometer).

normal cells (15S) = assay: FACS analysis of apoptotic markers, normal cells; format: cell-based; details: C29 at 1 µmol/L
Experimental: as §3

CAL33 = assay: Ectopic model of HNSCC (CAL33 xenograft); format: in vivo, nude (nu/nu) female mice
Experimental: One microgram of total RNA was used for the reverse transcription, using the QuantiTect Reverse Transcription kit (QIAGEN, Hilden, Germany), with blend of oligo (dT) and random primers to prime first-strand synthesis. SYBR master mix plus (Eurogentec) was used for qPCR. The mRNA level was normalized to 36B4 mRNA. The sequences of oligo nucleotides used in our experiments are describe in Table S1.
(§4) These studies were carried out in strict accordance with the recommendations in the Guide for the Care and Use of Laboratory Animals. Our experiments were approved by the ''Comité National Institutionnel d'Ethique pour l'Animal de Laboratoire'' (reference: PEA-255 and PEA-277). Cells were injected subcutaneously into the flank of 5-week-old nude (nu/nu) female mice (Janvier). When the tumor reached 100 mm^3, mice were treated. The tumor volume was determined with a caliper (v = L*l2*0.5).
One million CAL33 were injected subcutaneously.
Sections of formol-fixed and paraffin-embedded tumors were incubated with monoclonal anti-Ki67 (clone MIB1, DAKO) or anti-CD31 (clone MEC 13.3, BD Pharmingen) antibodies. A biotinylated secondary antibody (DAKO) was applied and binding was detected with the substrate diaminobenzidine against a hematoxylin counterstain.

786-O cells = assay: Ectopic model of RCC (786-O xenograft); format: in vivo, nude (nu/nu) female mice; details: C29 100 µg i.p. three per week; danirixin 200 µg three times a week; sunitinib 50 mg/kg oral gavage five times a week
Experimental: as §4
2- Seven million 786-O cells were injected subcutaneously.

[4] = Hematological, renal and hepatic toxicity; format: in vivo
[5] = CAL33 xenograft, 100 mg/kg gavage
[6] = C29 100mg/kg oral gavage, three weeks, ns vs CT

IC50 (OCI-AML3): 4 µM
IC50 (Molm13): 7 µM
IC50 (Molm14): 4 µM
IC50 (K562): 2 µM
IC50 ([1]; Mel202, CXCR1-/CXCR2-): 10 µM
IC50 ([2]; CXCR1+/CXCR2+): 3.2 µM
basal and CXCL5-dependent ERK/MAP Kinase signaling (p-ERK) [3]: inhibition
caspase 3 activity (caspase 3): increase
weight loss of the animals, HNSCC model (CAL33; [5]): did not observe any weight loss
SMILES: O=C(Nc1cccc(Cl)c1)Nc1nc2ccc([N+](=O)[O-])cc2s1 [C29]
IC50 (RCC4): 5 µM
proliferation/survival of uveal melanoma cells (Mel202) ([1]; 2.5 µmol/L): did not affect
Selectivity index Mel202 ([1]; SI = IC50 in normal cells (15S)/IC50 in Mel202): 1.25
proliferation of primary kidney tumor cells TF ([2]; Figure S8A-B): significantly decreased
Selectivity index TF ([2]; SI = IC50 in normal cells (15S)/IC50 in TF): 3.91
CXCL7-dependent migration of HuVECs (HuVEC): decreased
apoptotic markers in TF and CC cells (TF and CC cells): detected apoptotic markers
apoptotic markers in normal cells (15S) (normal cells (15S)): not the case for normal cells
mRNA level of murine CD31, experimental HNSCC (CAL33; CAL33 xenograft): decreased
decrease in the tumor weight, HNSCC (CAL33; [5]): 65%
proliferation marker Ki-67, experimental HNSCC (CAL33; [5]): decreased
decrease of the tumor volume at the end of the experiment, HNSCC (CAL33; CAL33 xenograft, 100 mg/kg gavage five times a week for two weeks): more than 65%
PI3K/AKT and ERK pathways in tumor lysates, experimental HNSCC (CAL33; immunoblotting, CAL33 xenograft): both pathways
efficacy on experimental HNSCC compared with danirixin and cisplatin (CAL33; oral gavage 100 mg/kg five times a week): more efficient than danirixin, at the same dose, or than the reference treatment with cisplatin
mRNA levels of ERL+CXCL cytokines, experimental HNSCC (CAL33; qPCR, CAL33 xenograft): Only CXCL5 was decreased
efficacy on tumor growth, 786-O xenograft (786-O cells): as efficient as a dose of 50 mg/kg administered by oral gavage
hematological, renal or hepatic toxicity ([4]; 100mg/kg by oral gavage five times a week for three weeks): did not induce hematological, renal or hepatic toxicity
Basophils [4, 6]: 0.07089 ± 0.02 k/µl
Eosinophils [4, 6]: 0.1760 ± 0.04 k/µl
Hematocrit [4, 6]: 26.22 ± 2.45%
Hemoglobin [4, 6]: 14.67 ± 1.22 g/dL
Leucocytes [4, 6]: 4.239 ± 0.60 k/µl
Lymphocytes [4, 6]: 2.943 ± 0.38 k/µl
Mean Corpuscular Volume [4, 6]: 112.0 ± 1.054 fL
Mean corpuscular hemoglobin [4, 6]: 31.46 ± 0.79 pg
Mean platelet volume [4, 6]: 12.81 ± 0.08 fL
Monocytes [4, 6]: 0.2664 ± 0.04 k/µl
Neutrophils [4, 6]: 0.6760 ± 0.11 k/µl
Platelets [4, 6]: 375.7 ± 77.93 k/µl
Red blood cells [4, 6]: 10.33 ± 0.98 M/µl

Source: paper PMC6691587, “New CXCR1/CXCR2 inhibitors represent an effective treatment for kidney or head and neck cancers sensitive or refractory to reference treatments” (Theranostics, 2019)
